According to ChEMBL document CHEMBL3885881, “DrugMatrix”:

Organism: Rattus norvegicus
Experiment: DrugMatrix - Regimen: Daily Repeat
Format: toxicity, organism-based, Sprague-Dawley
Design: regimen Daily Repeat, gender Male, age 6-8 weeks
Conditions: in vivo, po, route oral GAVAGE, vehicle .5 % CMC; for URIC ACID / ALANINE AMINOTRANSFERASE / ALBUMIN / ALKALINE PHOSPHATASE / ASPARTATE AMINOTRANSFERASE / BLOOD UREA NITROGEN / CARBON DIOXIDE / CHLORIDE / CHOLESTEROL / CREATINE PHOSPHOKINASE / CREATININE / GLUCOSE / LACTATE DEHYDROGENASE / LIPASE / PHOSPHORUS / POTASSIUM / SODIUM / TOTAL BILIRUBIN / TOTAL PROTEIN: tissue Plasma; for ABSOLUTE BASOPHIL / ABSOLUTE EOSINOPHIL / ABSOLUTE LYMPHOCYTE / ABSOLUTE MONOCYTE / ABSOLUTE SEGMENTED NEUTROPHIL / BASOPHIL / EOSINOPHIL / ERYTHROCYTE COUNT / HEMATOCRIT / HEMOGLOBIN / LEUKOCYTE COUNT / LYMPHOCYTE / MEAN CORPUSCULAR HEMOGLOBIN / MEAN CORPUSCULAR HEMOGLOBIN CONCENTRATION / MONOCYTE / NEUTROPHIL / NUCLEATED RED BLOOD CELLS / PLATELET COUNT: tissue Blood
[1] = 10 mg/kg, 120 h, dose level Low, time 5 day
[2] = 269 mg/kg, 72 h, dose level High, time 3 day
[3] = 269 mg/kg, 120 h, dose level High, time 5 day

Structure (SMILES): O=C1C(CC[S+]([O-])c2ccccc2)C(=O)N(c2ccccc2)N1c1ccccc1 (stereo unspecified) [SULFINPYRAZONE]
- URIC ACID (10 mg/kg, 72 h, dose level Low, time 3 day): 2 mg/dL
- ABSOLUTE BASOPHIL [1]: 0 CELLS/uL
- ABSOLUTE EOSINOPHIL [1]: 0 CELLS/uL
- ABSOLUTE LYMPHOCYTE [1]: 8238.33 CELLS/uL
- ABSOLUTE MONOCYTE [1]: 0 CELLS/uL
- ABSOLUTE SEGMENTED NEUTROPHIL [1]: 761.67 CELLS/uL
- BASOPHIL [1]: 0%
- EOSINOPHIL [1]: 0%
- ERYTHROCYTE COUNT [1]: 5.27 x10E6/uL
- HEMATOCRIT [1]: 33.27%
- HEMOGLOBIN [1]: 13.03 G/DL
- LEUKOCYTE COUNT [1]: 9 x10E3/uL
- LYMPHOCYTE [1]: 91.67%
- MEAN CORPUSCULAR HEMOGLOBIN [1]: 24.77 pg
- MEAN CORPUSCULAR HEMOGLOBIN CONCENTRATION [1]: 39.17 G/DL
- MONOCYTE [1]: 0%
- NEUTROPHIL [1]: 8.33%
- NUCLEATED RED BLOOD CELLS [1]: 0 /100WBC
- PLATELET COUNT [1]: 1182 x10E3/uL
- ALANINE AMINOTRANSFERASE [1]: 51.33 u/L
- ALBUMIN [1]: 4.23 G/DL
- ALKALINE PHOSPHATASE [1]: 307 u/L
- ASPARTATE AMINOTRANSFERASE [1]: 86.67 u/L
- BLOOD UREA NITROGEN [1]: 15.33 mg/dL
- CARBON DIOXIDE [1]: 30 mmol/L
- CHLORIDE [1]: 102 MEQ/L
- CHOLESTEROL [1]: 63.67 mg/dL
- CREATINE PHOSPHOKINASE [1]: 204 u/L
- CREATININE [1]: 0.19 mg/dL
- GLUCOSE [1]: 139.33 mg/dL
- LACTATE DEHYDROGENASE [1]: 126 u/L
- LIPASE [1]: 9 u/L
- PHOSPHORUS [1]: 11.67 mg/dL
- POTASSIUM [1]: 6.44 MEQ/L
- SODIUM [1]: 148.53 MEQ/L
- TOTAL BILIRUBIN [1]: 0.27 mg/dL
- TOTAL PROTEIN [1]: 6.3 G/DL
- URIC ACID [1]: 1 mg/dL
- ABSOLUTE BASOPHIL [2]: 0 CELLS/uL
- ABSOLUTE EOSINOPHIL [2]: 0 CELLS/uL
- ABSOLUTE LYMPHOCYTE [2]: 15229.67 CELLS/uL
- ABSOLUTE MONOCYTE [2]: 176.67 CELLS/uL
- ABSOLUTE SEGMENTED NEUTROPHIL [2]: 1627 CELLS/uL
- BASOPHIL [2]: 0%
- EOSINOPHIL [2]: 0%
- ERYTHROCYTE COUNT [2]: 4.48 x10E6/uL
- HEMATOCRIT [2]: 28.7%
- HEMOGLOBIN [2]: 11.63 G/DL
- LEUKOCYTE COUNT [2]: 17.03 x10E3/uL
- LYMPHOCYTE [2]: 89.67%
- MEAN CORPUSCULAR HEMOGLOBIN [2]: 26.03 pg
- MEAN CORPUSCULAR HEMOGLOBIN CONCENTRATION [2]: 40.6 G/DL
- MONOCYTE [2]: 1%
- NEUTROPHIL [2]: 9.33%
- NUCLEATED RED BLOOD CELLS [2]: 0 /100WBC
- PLATELET COUNT [2]: 1194 x10E3/uL
- ALBUMIN [2]: 3.87 G/DL
- ALKALINE PHOSPHATASE [2]: 319.33 u/L
- ASPARTATE AMINOTRANSFERASE [2]: 92.67 u/L
- BLOOD UREA NITROGEN [2]: 16 mg/dL
- CARBON DIOXIDE [2]: 21.33 mmol/L
- CHLORIDE [2]: 105.67 MEQ/L
- CHOLESTEROL [2]: 78.67 mg/dL
- CREATINE PHOSPHOKINASE [2]: 438 u/L
- CREATININE [2]: 0.18 mg/dL
- GLUCOSE [2]: 147 mg/dL
- LACTATE DEHYDROGENASE [2]: 291 u/L
- LIPASE [2]: 10.33 u/L
- PHOSPHORUS [2]: 11.97 mg/dL
- POTASSIUM [2]: 6.1 MEQ/L
- SODIUM [2]: 145.03 MEQ/L
- TOTAL BILIRUBIN [2]: 0.23 mg/dL
- TOTAL PROTEIN [2]: 5.5 G/DL
- URIC ACID [2]: 1.4 mg/dL
- ABSOLUTE BASOPHIL [3]: 0 CELLS/uL
- ABSOLUTE EOSINOPHIL [3]: 0 CELLS/uL
- ABSOLUTE LYMPHOCYTE [3]: 20046 CELLS/uL
- ABSOLUTE MONOCYTE [3]: 55 CELLS/uL
- ABSOLUTE SEGMENTED NEUTROPHIL [3]: 2899 CELLS/uL
- BASOPHIL [3]: 0%
- EOSINOPHIL [3]: 0%
- ERYTHROCYTE COUNT [3]: 5.28 x10E6/uL
- HEMATOCRIT [3]: 32.4%
- HEMOGLOBIN [3]: 13.17 G/DL
- LEUKOCYTE COUNT [3]: 23 x10E3/uL
- LYMPHOCYTE [3]: 87.33%
- MEAN CORPUSCULAR HEMOGLOBIN [3]: 24.9 pg
- MEAN CORPUSCULAR HEMOGLOBIN CONCENTRATION [3]: 40.63 G/DL
- MONOCYTE [3]: 0.33%
- NEUTROPHIL [3]: 12.33%
- NUCLEATED RED BLOOD CELLS [3]: 0 /100WBC
- PLATELET COUNT [3]: 1314.67 x10E3/uL
- ALANINE AMINOTRANSFERASE [3]: 59.33 u/L
- ALBUMIN [3]: 4.13 G/DL
- ALKALINE PHOSPHATASE [3]: 291.33 u/L
- ASPARTATE AMINOTRANSFERASE [3]: 70.33 u/L
- BLOOD UREA NITROGEN [3]: 15 mg/dL
- CARBON DIOXIDE [3]: 26.67 mmol/L
- CHLORIDE [3]: 102.33 MEQ/L
- CHOLESTEROL [3]: 77 mg/dL
- CREATINE PHOSPHOKINASE [3]: 224.33 u/L
- CREATININE [3]: 0.25 mg/dL
- GLUCOSE [3]: 143.67 mg/dL
- LACTATE DEHYDROGENASE [3]: 78.33 u/L
- LIPASE [3]: 9 u/L
- PHOSPHORUS [3]: 12.43 mg/dL
- POTASSIUM [3]: 6.73 MEQ/L
- SODIUM [3]: 147 MEQ/L
- TOTAL BILIRUBIN [3]: 0.23 mg/dL
- TOTAL PROTEIN [3]: 6 G/DL
- URIC ACID [3]: 1.53 mg/dL
